Measured values from patent US12414560B2, “Pesticidal compositions and related methods” (CJB Applied Technologies LLC, priority 2017, dated 2025).
Where “and” joins values, the source holds several entries; their conditions need not be identical. Equal entries are not always repeated.

Assays:
[1] = tested on: resistant strain of Didymella sp. (gummy stem rot); experiment: Petri dish test (zone of inhibition), radial growth, resistant strain of Didymella sp.; type: cell-based
Experimental: (§1) Petri dish tests (i.e., zone of inhibition tests) were conducted to compare the efficacy of azoxystrobin against both sensitive/susceptible and resistant strains of Didymella sp. (gummy stem rot).
Petri dish tests (i.e., zone of inhibition tests) were conducted to compare four rates of three adjuvant compositions (ADJ1, AJD2, and ADJ3 (N-methylpyrrolidone)) on sensitive and resistant strains of Didymella at a fixed treatment rate with a FRAC Group 11 fungicide, azoxystrobin.
Petri dish tests (i.e., zone of inhibition tests) were conducted to compare the efficacy of azoxystrobin (a strobilurin, quinone outside inhibitor (QOI), and member of Fungicide Resistance Action Committee (FRAC) Group 11) against resistant strains of Didymella sp. (gummy stem rot). Various organic solvents (adjuvants) were utilized at varying rates (6 fluid ounces/acre or 3 ounces/acre).

[2] = tested on: natural strains of Didymella; experiment: Watermelon Didymella (Gummy Stem Rot) field test, natural infection, disease severity rating; type: in vivo, Didymella on watermelon plants
Experimental: Watermelon plants were grown in normal field conditions subject to infection by natural strains of Didymella. The watermelons where then treated with: (a) a FRAC Group 11 fungicide, azoxystrobin alone; (b) ADJ1 alone; (c) azoxystrobin plus ADJ2; (d) azoxystrobin plus a typical commercial adjuvant (commercially available as Ad-Spray™); and (e) azoxystrobin plus chlorothalonil and commercial adjuvant. Disease severity ratings were taken and illustrated improved disease control of natural strains with ADJ1 compared to treatment with azoxystrobin alone or azoxystrobin plus commercial adjuvant, and equivalent control to azoxystrobin plus chlorothalonil and commercial adjuvant.

[3] = tested on: sensitive/susceptible strain of Didymella sp. (gummy stem rot); experiment: Petri dish test (zone of inhibition), radial growth, sensitive/susceptible strain of Didymella sp.; type: cell-based; details: for radial growth, 18 hours / radial growth, 24 hours / radial growth, 36 hours / radial growth, 48 hours / radial growth, 12 hours: sensitive strain
Experimental: as §1
Petri dish tests (i.e., zone of inhibition tests) were conducted to compare four rates of three adjuvant compositions (ADJ1, AJD2, and ADJ3 (N-methylpyrrolidone)) on sensitive and resistant strains of Didymella at a fixed treatment rate with a FRAC Group 11 fungicide, azoxystrobin. […]

[4] = tested on: natural strains of Cercospora (known to be resistant to azoxystrobin); experiment: Soybean Cercospora (Frog Eye Leaf Spot) field test, severity ratings; type: in vivo, Cercospora on soybean plants; details: azoxystrobin 0.5×
Experimental: Soybean plants were grown in normal field conditions subject to infection by natural strains of Cercospora (known to be resistant to azoxystrobin) then treated with: (a) a FRAC Group 11 fungicide, azoxystrobin alone; (b) azoxystrobin plus ADJ1; (c) azoxystrobin plus ADJ2; (d) azoxystrobin plus a typical commercial adjuvant (commercially available as Preference®). Disease severity ratings were taken and illustrated improved disease control with ADJ1 and ADJ2 compared to treatment with azoxystrobin alone or azoxystrobin plus commercial adjuvant. Duncan Multiple Range treatment of the data (indicated by “a,” “b,” “c,”, etc.) confirmed statistically valid different between the treatment results.

[5] = tested on: azoxystrobin resistant strain of Didymella; experiment: Watermelon Didamella (Gummy Stem Rot) field test, inoculated plants, disease severity rating; type: in vivo, Didymella on watermelon plants; parameters: key: based on counts of active fungal infection sites on leaves; details: adjuvant rate 6 fl oz/acre
Experimental: Watermelon plants were inoculated with an azoxystrobin resistant strain of Didymella. The watermelon plants were then treated with: (a) a FRAC Group 11 fungicide, azoxystrobin alone; (b) azoxystrobin plus ADJ1; (c) azoxystrobin plus ADJ2; (d) azoxystrobin plus a typical commercial adjuvant (commercially available as Ad-Spray™); and (e) azoxystrobin plus chlorothalonil and commercial adjuvant (commercially available as Ad-Spray™). Disease severity ratings were taken and illustrated improved disease control of resistant strain with ADJ1 and ADJ2 compared to treatment with azoxystrobin alone, azoxystrobin plus commercial adjuvant, and azoxystrobin plus chlorothalonil and commercial adjuvant, especially at lower rates of azoxystrobin. Severity rating were based on multiple counts of active fungal infection sites on the leaves of the plants.

Goosegrass (GG) = experiment: Herbicide burndown testing, Goosegrass; details: in vivo; also: test concentration or dose not given here
Experimental: (§2) Burndown (BD) testing was conducted on Morning Glory (MG), Goosegrass (GG), Florida Beggarweed (FB) with an herbicide, Gramoxone® (paraquat—N,N′-dimethyl-4,4′-bipyridinium dichloride). Various amounts of Crop Oil Concentrate™ (COC) and an organic solvent adjuvant, Benzyl Acetate (BA), were utilized in conjunction with the herbicide. Crop Oil Concentrate™ (COC) is commonly used to enhance the deposition and spreading of herbicides on the leaf surface. The Crop Oil Concentrate™ (COC) included paraffinic petroleum oil, tall oil fatty acids and alkylphenol ethoxylates. The results are summarized in Table 20 and show a substantial increase in burndown rate when the organic solvent adjuvant is combined with an herbicide. The results also show a substantial increase in burndown rate compared to the combination of herbicide and Crop Oil Concentrate™ (COC).

Morning Glory (MG) = experiment: Herbicide burndown testing, Morning Glory; details: in vivo; also: test concentration or dose not given here
Experimental: as §2

[6] = tested on: resistant strains of Rhizoctonia solani (brown patch, stem rot, and/or root rot); experiment: Petri dish test (zone of inhibition), resistant strains of Rhizoctonia solani; type: cell-based; details: organic solvent composition (where used) 6 fluid ounces/acre; for % Reduction in Radial Growth: 48 hours, vs untreated
Experimental: Petri dish tests (i.e., zone of inhibition tests) were conducted to compare the efficacy of tebuconazole (demethylation inhibitor, […], a triazole, and member of Fungicide Resistance Action Committee (FRAC) Group 3) against resistant strains of Rhizoctonia solani (brown patch, stem rot, and/or root rot). Various organic solvents (adjuvants) were utilized at 6 fluid ounces/acre and compared with just the active ingredient alone. The results are summarized in Table 19 and show the organic solvents provide a substantial resistant strain growth reduction compared to a FRAC Group 3 active ingredient utilized alone.

[7] = ADJ1 0.25× (adjuvant rate 4 fl oz/acre), Quadris 0
[8] = adjuvant 4 fl oz/acre (ADJ1 0.5×), Quadris 0
[9] = adjuvant 6 fl oz/acre ([…]), Quadris 0
[10] = adjuvant 8 fl oz/acre (1×), Quadris 0
[11] = azoxystrobin 0, additive alone (additive rate 0)
[12] = azoxystrobin 0, adjuvant only 6 fl oz/acre
[13] = adjuvant 2 fl oz/acre (0.25×), Quadris 0
[14] = adjuvant 4 fl oz/acre (0.5×), Quadris 0
[15] = adjuvant 8 fl oz/acre (ADJ1 1×), Quadris 0
[16] = azoxystrobin 5.5 fl oz/acre, no additive
[17] = azoxystrobin 11 fl oz/acre, no additive
[18] = azoxystrobin 16 fl oz/acre, no additive
[19] = azoxystrobin 22 fl oz/acre, no additive
[20] = azoxystrobin 5.5 fl oz/acre, adjuvant rate 6 fl oz/acre
[21] = azoxystrobin 11 fl oz/acre, adjuvant rate 6 fl oz/acre
[22] = azoxystrobin application rate 5.5
[23] = azoxystrobin application rate 11
[24] = azoxystrobin application rate 22

For `CC(=O)OCc1ccccc1` [ADJ1, benzyl acetate], the “radial growth, 18 hours” value [1, 7] was 20.6 cm, the “radial growth, 24 hours” value [1, 7] was 30.2 cm and the “radial growth, 48 hours” value [1, 7] was 51.2 cm. The “radial growth, 18 hours” value [1, 8] was 22.6 cm, the “radial growth, 24 hours” value [1, 8] was 28.5 cm and the “radial growth, 48 hours” value [1, 8] was 53.9 cm. The “radial growth, 18 hours” value [1, 9] was 18.9 cm, the “radial growth, 24 hours” value [1, 9] was 23.4 cm and the “radial growth, 48 hours” value [1, 9] was 45.9 cm. For the same compound, the “radial growth, 18 hours” value [1, 10] was 16.7 cm, the “radial growth, 24 hours” value [1, 10] was 10.9 cm and the “radial growth, 48 hours” value [1, 10] was 44.4 cm. The “radial growth, 12 hours” value [1, 11] was 25 cm, the “radial growth, 24 hours” value [1, 11] was 30 cm and the “growth reduction, in words” value ([1]; text of Example 2) was “some efficacy but not at a commercial level control”. The “disease reduction, in words” value ([2]; ADJ1 only) was “Some disease reduction”, the “disease severity, Fourth Week Rating” value [2, 12] was 48.7 and the “disease severity, One Week Rating” value [2, 12] was 1.1. The “disease severity, Third Week Rating” value [2, 12] was 38.9, the “disease severity, Two Week Rating” value [2, 12] was 8 and the “radial growth, 18 hours” value [3, 13] was 19.9 cm. The “radial growth, 24 hours” value [3, 13] was 24.9 cm, the “radial growth, 36 hours” value [3, 13] was 39.3 cm and the “radial growth, 48 hours” value [3, 13] was 47.9 cm. For the same compound, the “radial growth, 18 hours” value [3, 14] was 17 cm, the “radial growth, 24 hours” value [3, 14] was 23.7 cm and the “radial growth, 36 hours” value [3, 14] was 32.3 cm. For the same compound, the “radial growth, 48 hours” value [3, 14] was 46 cm, the “radial growth, 18 hours” value [3, 9] was 15.7 cm and the “radial growth, 24 hours” value [3, 9] was 26.1 cm. The “radial growth, 36 hours” value [3, 9] was 38.8 cm, the “radial growth, 48 hours” value [3, 9] was 48.1 cm and the “radial growth, 18 hours” value [3, 15] was 15.7 cm. The “radial growth, 24 hours” value [3, 15] was 21.3 cm, the “radial growth, 36 hours” value [3, 15] was 40.6 cm and the “radial growth, 48 hours” value [3, 15] was 50.1 cm. For the same compound, the “radial growth, 12 hours” value [3, 11] was 24 cm, the “radial growth, 24 hours” value [3, 11] was 41.1 cm and the “radial growth, 36 hours” value [3, 11] was 54 cm. For the same compound, the “control compared to azoxystrobin alone, in words” value ([3]; susceptible strain, equivalent of 2 oz/acre of ADJ1) was “comparable control”.

With `CO/C=C(/C(=O)OC)c1ccccc1Oc1cc(Oc2ccccc2C#N)ncn1` [azoxystrobin] the “radial growth, 12 hours” value [1, 16] was 31 cm, the “radial growth, 24 hours” value [1, 16] was 48 cm and the “radial growth, 12 hours” value [1, 17] was 30 cm. For the same compound, the “radial growth, 24 hours” value [1, 17] was 48 cm, the “radial growth, 12 hours” value [1, 18] was 29 cm and the “radial growth, 24 hours” value [1, 18] was 47 cm. For the same compound, the “radial growth, 12 hours” value [1, 19] was 22 cm, the “radial growth, 24 hours” value [1, 19] was 28 cm and the “disease severity, Fourth Week Rating” value [2, 20] was 80.8. For the same compound, the “disease severity, One Week Rating” value [2, 20] was 2.1, the “disease severity, Third Week Rating” value [2, 20] was 59.4 and the “disease severity, Two Week Rating” value [2, 20] was 6.6. For the same compound, the “disease severity, Fourth Week Rating” value [2, 21] was 76.8, the “disease severity, One Week Rating” value [2, 21] was 1.1 and the “disease severity, Third Week Rating” value [2, 21] was 49.5. For the same compound, the “disease severity, Two Week Rating” value [2, 21] was 0, the “Severity Ratings, August 31/Upper leaf” value [4] was 10.3 and the “Severity Ratings, September 7/bottom leaf” value [4] was 35.5. For the same compound, the “Severity Ratings, September 7/higher Leaf” value [4] was 16.3, the “Severity Ratings, September 7/middle leaf” value [4] was 3.2 and the “Severity Ratings, September 13/bottom leaf” value [4] was 18. The “Severity Ratings, September 20/higher leaf” value [4] was 11.3, the “disease severity, Fourth Week Rating” value [5, 22] was 82.8 and the “disease severity, One Week Rating” value [5, 22] was 9.2. For the same compound, the “disease severity, Third Week Rating” value [5, 22] was 63.3, the “disease severity, Two Week Rating” value [5, 22] was 16.9 and the “disease severity, Fourth Week Rating” value [5, 23] was 65.7. The “disease severity, One Week Rating” value [5, 23] was 13.3, the “disease severity, Third Week Rating” value [5, 23] was 42 and the “disease severity, Two Week Rating” value [5, 23] was 16.7. The “disease severity, Fourth Week Rating” value [5, 24] was 16.3, the “disease severity, One Week Rating” value [5, 24] was 1.1 and the “disease severity, Third Week Rating” value [5, 24] was 4.8. For the same compound, the “disease severity, Two Week Rating” value [5, 24] was 0.2, the “radial growth, 12 hours” value [3, 16] was 15.3 cm and the “radial growth, 24 hours” value [3, 16] was 24.9 cm. For the same compound, the “radial growth, 36 hours” value [3, 16] was 34.3 cm, the “radial growth, 12 hours” value [3, 17] was 12.5 cm and the “radial growth, 24 hours” value [3, 17] was 16.9 cm. For the same compound, the “radial growth, 36 hours” value [3, 17] was 23.6 cm, the “radial growth, 12 hours” value [3, 18] was 13.4 cm and the “radial growth, 24 hours” value [3, 18] was 20 cm. For the same compound, the “radial growth, 36 hours” value [3, 18] was 28 cm, the “radial growth, 12 hours” value [3, 19] was 15.8 cm and the “radial growth, 24 hours” value [3, 19] was 22.9 cm. The “radial growth, 36 hours” value [3, 19] was 31.9 cm.

For `C[n+]1ccc(-c2cc[n+](C)cc2)cc1` [Paraquat], the “BD (GG) (%)” value (Goosegrass (GG)) was 72% and 60% and 100% and the “BD (MG) (%)” value (Morning Glory (MG)) was 51% and 50% and 81%.

In the case of `CC(C)(C)C(O)(CCc1ccc(Cl)cc1)Cn1cncn1` (stereo not shown) [Tebuconazole], the “Radial growth (cm) at 48 hours” value ([6]; Tebuconazole 2 oz/acre) was 10.72 cm, the “% Reduction in Radial Growth” value ([6]; Tebuconazole 2 oz/acre) was 32% and the “Radial growth (cm) at 48 hours” value ([6]; Tebuconazole 4 oz/acre) was 7.8 cm. For the same compound, the “% Reduction in Radial Growth” value ([6]; Tebuconazole 4 oz/acre) was 50%.

With `CN1CCCC1=O` [ADJ3, N-methylpyrrolidone] the “radial growth, 12 hours” value [1, 11] was 27 cm, the “radial growth, 24 hours” value [1, 11] was 39 cm and the “radial growth, 12 hours” value [3, 11] was 22.8 cm. The “radial growth, 24 hours” value [3, 11] was 41 cm and the “radial growth, 36 hours” value [3, 11] was 54.1 cm.
